This note sets out measurements from patent US20100144688A1, “23-Substituted Derivatives of Lupane-type Pentacyclic Triterpenoids” (ADVANCED LIFE SCIENCES, INC., priority 2008, published 2010).

Structures are written as SMILES.

Common to all, as to format: cell-based
The test system of one experiment is SK-MEL-2 (melanoma). The experiment is described as follows: MTS cell viability assay, SK-MEL-2. Particulars: 72 h incubation. On the procedure:
(§1) Cells were plated, the evening before treatment, for each treatment on 96-well plates (1×10^4 cells/well) in 100 μL volume per well. Analog solutions were prepared by diluting each test compound in DMSO (10 mM) with the appropriate cell growth media for each individual cell line, or in “Universal Media” if several cell lines were to be assayed in parallel, immediately prior to cell treatment. Universal Media consisted of 5 mL sodium pyruvate (100× liquid stock, MediaTech), 5 mL glucose (100×, 45% liquid stock, MediaTech), 5 mL Penicillin/Streptomycin (100× liquid stock, MediaTech), 10 mL sodium bicarbonate (50× liquid stock, MediaTech), 25 mL Fetal Calf Serum, 1.25 mL insulin (4 mg/mL, Gibco) and 449 mL RPMI media with 2 mM L-glutamine for a total volume of 500 mL.
(§2) Cells were treated by aspirating plating media from each well and adding 80 μL of betulinic acid (control) or each analog solution in serial dilutions to the adherent cells. All treatments were performed in triplicate. Growth media (80 μL) was added to 3 blank wells (no cells) to measure background from the growth media. Growth media alone (no DMSO or test compound) was added to 3 wells containing cells to measure the baseline MTS activity. Vehicle (DMSO) control in serial dilutions, added to cells, was also included to monitor basal toxicity from DMSO. Cells were incubated at 37° C. for 72 h, or 120 h for the OVCAR cell lines. MTS reagent (per 96-well plate) were prepared by combining 2 mL of MTS working solution (Cell Titer Aqueous Non-Radioactive Cell Proliferation Assay, Promega, cat#G1112), 100 μL of 0.92 mg/mL phenazine methosulfate/Dulbecco's PBS and 2.1 mL growth media. MTS reagent (40 μL) was added to each well and incubated at 37° C. for 1.5 to 4 h. Plates were gently shaken by hand until solution in each well appeared homogenous. Absorbances at 490 nm were measured on a Wallac Victor II plate reader at multiple time points following the addition of MTS reagent for each plate. Triplicate absorbance (490 nm) measurements were averaged following background (no cell) subtraction for each drug concentration. Percent Cell Viability was calculated for each drug concentration using the following equation:
(§3) {[Absorbance(analog treated)]/[Absorbance(DMSO treated)]}×100%
(§4) Percent viability (y-axis) was plotted against drug concentration (x-axis) and the resulting graph was used to determine the 50% inhibitory concentration (IC50) for each drug.
(§5) Cytotoxicity dose response for the synthesized triterpenoid derivatives in SK-MEL-2 (melanoma), A-375 (melanoma), Daoy (glioblastoma), LN-229 (glioblastoma), OVCAR-3 (ovarian carcinoma), HT-29 (colon carcinoma), MCF-7 (breast carcinoma) cell lines using the standard MTS assay (described above) is summarized in Table 1.
(In general: Tetrazolium dyes change colour on reduction, which living cells bring about.)

A further experiment has as its system Daoy (glioblastoma). Put plainly: MTS cell viability assay, Daoy. As to conditions: 72 h incubation. How it is done:
as §1, §2, §3, §4, §5

A further experiment concerns LN-229 (glioblastoma). The experiment is described as follows: MTS cell viability assay, LN-229. As to conditions: 72 h incubation. How it is done:
as §1, §2, §3, §4, §5

For the next experiment, the system named is A-375 (melanoma). The experiment is described as follows: MTS cell viability assay, A-375. Particulars: 72 h incubation. How it is done: as §1, §2, §3, §4, §5
A further experiment deals with MCF-7 (breast carcinoma). The experiment is described as follows: MTS cell viability assay, MCF-7. Particulars: 72 h incubation. On the procedure: as §1, §2, §3, §4, §5
A further experiment relates to HT-29 (colon carcinoma). The experiment is described as follows: MTS cell viability assay, HT-29. As to conditions: 72 h incubation. On the procedure:
as §1, §2, §3, §4, §5

Experiment [1] has as its system OVCAR-3 (ovarian carcinoma). The experiment is described as follows: MTS cell viability assay, OVCAR-3. As to conditions: 120 h for the OVCAR cell lines. On the procedure:
as §1
Cells were treated by aspirating plating media from each well and adding 80 μL of betulinic acid (control) or each analog solution in serial dilutions to the adherent cells. […] Absorbances at 490 nm were measured on a Wallac Victor II plate reader at multiple time points following the addition of MTS reagent for each plate. Triplicate absorbance (490 nm) measurements were averaged following background (no cell) subtraction for each drug concentration. Percent Cell Viability was calculated for each drug concentration using the following equation:
{[Absorbance(analog treated)]/[Absorbance(DMSO treated)]}×100% […]

For `C=C(C)[C@@H]1CC[C@]2(C(=O)O)CC[C@]3(C)[C@H](CC[C@@H]4[C@@]5(C)CC[C@H](O)C(C)(C)[C@@H]5CC[C@]43C)[C@@H]12` [Compound 2, betulinic acid, reference compound], the IC50 (commonly the concentration that gives 50% inhibition) stood at 33 µM in the experiment on SK-MEL-2 (melanoma); 31 µM in the experiment with Daoy (glioblastoma); 61 µM in the experiment with LN-229 (glioblastoma); 51 µM with A-375 (melanoma); 50 µM in the experiment with MCF-7 (breast carcinoma); 37 µM with HT-29 (colon carcinoma). Further, in experiment [1], the concentration for half-maximal inhibition (IC50) worked out at 59 µM.
